Holding throughout (type): biochemical
Assay [1] concerns the target T1, monkey testicular C17-20 lyase (Macaca fascicularis, UniProt Q2XVA1).
T1 construct: microsomal preparations of the enzyme from rat or cynomolgus monkey testicular tissue; from tissue; host or cells: cynomolgus monkey testicular tissue, microsomes
T1 sequence (Q2XVA1 1-508): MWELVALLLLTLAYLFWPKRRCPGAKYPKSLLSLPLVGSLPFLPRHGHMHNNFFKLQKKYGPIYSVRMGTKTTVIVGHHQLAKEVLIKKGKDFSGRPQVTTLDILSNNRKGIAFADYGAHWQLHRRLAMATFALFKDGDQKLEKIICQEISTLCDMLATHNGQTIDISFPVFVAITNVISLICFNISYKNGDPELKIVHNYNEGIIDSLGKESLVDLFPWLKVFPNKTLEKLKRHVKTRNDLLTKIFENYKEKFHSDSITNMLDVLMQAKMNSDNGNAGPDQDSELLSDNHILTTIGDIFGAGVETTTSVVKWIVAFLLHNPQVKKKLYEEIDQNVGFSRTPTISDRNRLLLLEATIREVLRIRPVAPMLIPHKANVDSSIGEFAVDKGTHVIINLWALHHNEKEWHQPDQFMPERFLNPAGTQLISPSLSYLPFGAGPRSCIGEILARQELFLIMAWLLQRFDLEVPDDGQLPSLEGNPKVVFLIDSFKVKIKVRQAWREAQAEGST
The assay is described as follows: inhibition of cynomolgus monkey testicular C17-20 lyase (microsomes), with or without preincubation. The settings on record: for inhibition at 0.1 µM / inhibition at 1 µM: cynomolgus monkey testicular lyase; for inhibition at 0.1 µM: concentration 0.1 μM; for inhibition at 1 µM: concentration 1 μM. As for the experimental part:
(§1) The in vitro enzymatic inhibitory activity of the present compounds as inhibitors of steroid C17-20 lyase was established using microsomal preparations of the enzyme from rat or cynomolgus monkey testicular tissue. Microsomes were isolated from cynomolgus monkey or rat testicular tissue. The compound to be tested was dissolved in dimethyl sulfoxide and diluted in 0.05M potassium phosphate buffer, (pH 7.4 for cynomolgus monkey lyase activity and pH 7.2 for rat lyase activity) to give the desired concentrations of test compound. The final assay concentration of DMSO was 0.1% (v/v). Assays contained an NADPH regenerating system comprised of […], 5 mM glucose-6-phosphate, 1 IU/mL glucose-6-phosphate dehydrogenase and microsomal protein in a total volume of 0.2 mL.
For determination of time dependent C17-20 lyase inactivation, the test compound was incubated with 20 to 62 μg/mL microsomal protein, 0.05 M potassium phosphate buffer, pH 7.4, and the NADPH regenerating system described above at 34° C. for 0 to 40 minutes. Aliquots of 180 μL were then removed and assayed for enzyme activity. Each aliquot was added to [7-^3 H]-17α-hydroxypregnenolone (11.2 mCi/mmole; 0.2 μCi per assay) plus unlabeled 17α-hydroxypregnenolone to give a total substrate concentration of 0.3 μM per assay and subsequently incubated for 6 minutes at 34° C. For determination of reversible inhibition by the test compound, the reaction was initiated by the addition of substrate and inhibitor (or DMSO in buffer for controls) simultaneously to the other assay components. The substrate used for cynomolgus monkey lyase was 7-^3 H-17α-hydroxypregnenolone, which yielded a final concentration of 0.3 μM substrate. […] The complete assay was incubated at 34° C. for 6 minutes for both rat and monkey lyase.
Each assay was terminated by addition of 5 mL of chloroform:methanol (2:1). Carrier steroid (2.5 μg each) representing substrates and products and 0.8 mL of distilled, deionized water were then added to each assay. Carrier steroids for the lyase assays were 17α-hydroxy-pregnenolone,dehydroepiandrosterone, and androst-5-ene-3β,17β-diol (cynomolgus monkey lyase assays) or 17α-hydroxyprogesterone, androstenedione, and testosterone (rat lyase assays). Testosterone, dihydrotestosterone, and 3,17-androstanediol were added to the 5α-reductase assays as carrier steroids. Radiolabeled and unlabeled steroid were extracted by the method of Moore and Wilson (Methods in Enzymol., eds. O'Malley, B. W. and Hardlan, J. G. 36, 1975, pp. 466-473). The organic phase containing the steroids was evaporated using nitrogen gas. For lyase assays, the residues dissolved in 18% tetrahydrofuran (v/v) in hexane. For 5α-reductase assays, the dried steroid residues were dissolved in 3% (v/v) isopropanol in hexane. the steroids were then separated by normal phase HPLC on a LiCrosorb® DIOL derivatized silica gel column (10 μm; 4×250 mm) with a 3% to 7.5% isopropanol in hexane gradient, followed by isocratic conditions of […] isopropanol in hexane. Radioactivity in the steroid peaks was measured using a Radiomatic® Model HS or Model A515 Flo-One detector for both lyase and 5α-reductase assays.
The enzyme activity for each assay was calculated from the percent conversion of substrate to products, and the results were expressed as percent inhibition of control. The data from these experiments were fitted into the appropriate two parameter model incorporating six concentrations of inhibitor to determine an IC50 value. […] When the compounds were tested using the above procedures with cynomolgus monkey testicular lyase, the following results were obtained: […]

In assay [2] the target is T2, prostatic monkey 5α-reductase (Macaca fascicularis, UniProt Q28892).
T2 construct: microsomes were isolated from cynomolgus monkey prostate tissue; from tissue; host or cells: cynomolgus monkey prostate tissue, microsomes
T2 sequence (Q28892 1-254): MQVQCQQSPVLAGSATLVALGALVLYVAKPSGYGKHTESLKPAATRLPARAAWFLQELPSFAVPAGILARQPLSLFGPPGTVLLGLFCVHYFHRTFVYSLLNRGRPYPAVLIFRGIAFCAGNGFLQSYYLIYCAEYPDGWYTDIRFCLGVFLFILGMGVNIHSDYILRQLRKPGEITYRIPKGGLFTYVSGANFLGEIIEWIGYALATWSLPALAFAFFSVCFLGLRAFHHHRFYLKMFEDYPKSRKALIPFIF
As to the kind of experiment: inhibition of cynomolgus monkey prostatic 5α-reductase (microsomes). As for the experimental part: The activity of the present compounds as inhibitors of steroid 5α-reductase was determined using microsomal preparations of the 5α-reductase enzyme from laboratory animal prostate tissue. Specifically, microsomes were isolated from cynomolgus monkey prostate tissue. Protein concentration of the microsomal preparations was determined prior to use of the samples. […] Background radioactivity was determined from assays containing all components except enzyme. […]
(§2) Each assay was terminated by addition of 5 mL of chloroform:methanol (2:1). […] Radioactivity in the steroid peaks was measured using a Radiomatic® Model HS or Model A515 Flo-One detector for both lyase and 5α-reductase assays.
(§3) The enzyme activity for each assay was calculated from the percent conversion of substrate to products, and the results were expressed as percent inhibition of control. […]

Assay [3] addresses T3, rat testicular C17-20 lyase (Rattus norvegicus, UniProt P11715).
T3 construct: microsomal preparations of the enzyme from rat or cynomolgus monkey testicular tissue; from tissue; host or cells: rat testicular tissue, microsomes
T3 sequence (P11715 1-507): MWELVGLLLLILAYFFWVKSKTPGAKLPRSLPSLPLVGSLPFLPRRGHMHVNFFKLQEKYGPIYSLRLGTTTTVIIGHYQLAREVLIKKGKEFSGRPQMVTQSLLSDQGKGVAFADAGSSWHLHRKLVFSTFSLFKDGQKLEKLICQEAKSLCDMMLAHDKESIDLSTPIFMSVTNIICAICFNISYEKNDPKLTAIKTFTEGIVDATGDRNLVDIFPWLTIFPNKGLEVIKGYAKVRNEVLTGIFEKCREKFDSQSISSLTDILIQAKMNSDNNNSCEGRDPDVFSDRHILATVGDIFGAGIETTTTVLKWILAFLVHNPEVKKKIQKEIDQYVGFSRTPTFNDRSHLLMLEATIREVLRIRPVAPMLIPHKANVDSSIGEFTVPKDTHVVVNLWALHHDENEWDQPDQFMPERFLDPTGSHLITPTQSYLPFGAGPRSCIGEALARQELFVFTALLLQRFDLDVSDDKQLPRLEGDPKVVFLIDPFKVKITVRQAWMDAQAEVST
The assay is described as follows: inhibition of rat testicular C17-20 lyase (microsomes). Here is the method:
as §1, with “mL. […]” for “mL.”
as §2, §3

[4] abbreviates: preincubation time 40 (minutes).

Regarding `C[C@]12CC[C@H]3[C@@H](CCC4=C([N+](=O)[O-])C(=O)CC[C@@]43C)[C@@H]1CC[C@@H]2OC1CC1` [17β-cyclopropyloxy-4-nitroandrost-4-en-3-one], in assay [1] (preincubation time 0 (minutes)), testing at 0.1 µM gave an inhibition of 36% and testing at 1 µM gave an inhibition of 78%. Moreover, in assay [1] (setting [4]), the inhibition (usually the relative decrease from the control value, in per cent) at 0.1 µM was found to be 79% and at 1 µM the inhibition was 95%.
For `C[C@H](CO)[C@H]1CC[C@H]2[C@@H]3CCC4=C([N+](=O)[O-])C(=O)CC[C@]4(C)[C@H]3CC[C@]12C` [(20S)-20-Hydroxymethyl-4-nitropregn-4-en-3-one], the IC50 (as a rule, the concentration at which inhibition is half-maximal) amounted to 41 nM in assay [1] (cynomolgus monkey testicular microsomes, substrate 0.3 μM 17α-hydroxypregnenolone, 34° C.); 17 nM in assay [2]; 86 nM in assay [3] (rat testicular microsomes, substrate 0.1 μM 17α-hydroxyprogesterone, pH 7.2, 34° C.).
Consider `C[C@H](CS)[C@H]1CC[C@H]2[C@@H]3CCC4=C([N+](=O)[O-])C(=O)CC[C@]4(C)[C@H]3CC[C@]12C` [(20S)-20-mercaptomethyl-4-nitropregn-4-en-3-one], for which, in assay [1] (preincubation time 0 (minutes)), the inhibition at 0.1 µM amounted to 0% and the inhibition at 1 µM stood at 69%. Further, in assay [1] (setting [4]), the inhibition at 0.1 µM turned out to be 26% and the inhibition at 1 µM amounted to 93%.
`CC(=O)[C@@]1(O)CC[C@H]2[C@@H]3CCC4=CC(=O)CC[C@]4(C)[C@H]3CC[C@@]21C` [[1,2-^3 H]-17α-hydroxyprogesterone, reference compound]: in assay [3] (substrate Km, rat lyase activity), the Km (commonly the concentration of substrate that gives half-maximal velocity) was found to be 0.095 µM.

The values above are taken from patent publication US5990328A, “Process for the preparation of 4-amino-Δ4-3-ketosteroids via 4-nitro-Δ4-3-ketosteroids” (priority 1999, dated 1999).
